# Literature values in US20250143905A1, “TOPICAL TREATMENT FOR ANORECTAL DISORDERS WITH AND WITHOUT SEAT CUSHION” (priority 2019, published 2025).
# Test system: PPAR-γ
# Conditions: septic rats; pretreatment with curcumin for 3 days at 0.24 μmol/kg body weight; liver
compound,measurement,value
COc1cc(/C=C/C(=O)CC(=O)/C=C/c2ccc(O)c(OC)c2)ccc1O [curcumin],increase in PPAR-γ mRNA levels,45%
same,increase in PPAR-γ protein levels,65%
